Laboratory results: publication PMC9228270, “Design, Synthesis, In Silico Studies and Inhibitory Activity towards Bcr-Abl, BTK and FLT3-ITD of New 2,6,9-Trisubstituted Purine Derivatives as Potential Agents for the Treatment of Leukaemia” (Pharmaceutics, 2022)
Several values for one entry are separate records, joined by “and”; a condition that tells them apart may be missing. Identical values can stand only once. Like-named read-outs stand apart in the source and are kept apart here. Each block holds one compound with its values, some of them ahead of it.

Tests used:
BTK = biological target: T1, BTK (Homo sapiens, UniProt Q06187); experiment: Recombinant kinase radioassay, BTK; assay type: biochemical
T1 construct: purchased ProQinase
T1 sequence (Q06187 whole entry): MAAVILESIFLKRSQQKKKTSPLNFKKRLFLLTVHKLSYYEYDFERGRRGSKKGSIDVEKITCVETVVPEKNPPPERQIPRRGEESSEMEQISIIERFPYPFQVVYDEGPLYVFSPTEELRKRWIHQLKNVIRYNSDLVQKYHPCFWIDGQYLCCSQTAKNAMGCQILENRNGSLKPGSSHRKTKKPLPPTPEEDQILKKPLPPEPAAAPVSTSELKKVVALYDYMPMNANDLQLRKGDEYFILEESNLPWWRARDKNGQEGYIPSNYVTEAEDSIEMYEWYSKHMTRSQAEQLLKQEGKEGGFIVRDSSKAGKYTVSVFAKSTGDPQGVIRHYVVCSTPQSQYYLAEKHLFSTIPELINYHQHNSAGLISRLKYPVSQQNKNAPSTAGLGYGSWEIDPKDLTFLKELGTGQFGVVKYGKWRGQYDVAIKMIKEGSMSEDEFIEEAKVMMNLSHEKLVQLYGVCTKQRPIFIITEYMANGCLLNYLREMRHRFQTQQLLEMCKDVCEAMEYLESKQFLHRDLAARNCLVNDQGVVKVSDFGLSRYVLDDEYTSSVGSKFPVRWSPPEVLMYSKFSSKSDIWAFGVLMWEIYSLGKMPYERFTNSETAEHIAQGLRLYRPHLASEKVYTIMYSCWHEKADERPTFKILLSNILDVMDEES
Experimental: (§1) Recombinant kinase inhibition was measured using standard radioassay. Bcr-Abl1 and Cdk-2/cyclin E kinases were produced in-house, FLT3-ITD and BTK were purchased from ProQinase. The kinases were assayed with suitable substrates (500 µM peptide […] for Abl, 1 mg/mL histone H1 for Cdk-2, 100 µM poly (Glu:Tyr; 4:1)) in the presence of ATP (1 µM for Bcr-Abl, 15 µM for Cdk-2 and BTK), 0.05 µCi [γ-^33P]ATP and the test compound in reaction buffer (60 mM HEPES-NaOH, pH 7.5, 3 mM MgCl2, 3 mM MnCl2, 3 µM Na orthovanadate, 1.2 mM DTT, 2.5 µg/50 µL PEG20.000). The reactions were stopped by adding 3% aq. H3PO4. P-81 phosphocellulose (Whatman) was used to separate phosphorylated substrates. Kinase activity was quantified using a FLA-7000 digital image analyser.

FLT3-ITD = biological target: T2, FLT3-ITD (Homo sapiens, UniProt P36888, ITD); experiment: Recombinant kinase radioassay, FLT3-ITD; assay type: biochemical
T2 sequence (P36888 27-993): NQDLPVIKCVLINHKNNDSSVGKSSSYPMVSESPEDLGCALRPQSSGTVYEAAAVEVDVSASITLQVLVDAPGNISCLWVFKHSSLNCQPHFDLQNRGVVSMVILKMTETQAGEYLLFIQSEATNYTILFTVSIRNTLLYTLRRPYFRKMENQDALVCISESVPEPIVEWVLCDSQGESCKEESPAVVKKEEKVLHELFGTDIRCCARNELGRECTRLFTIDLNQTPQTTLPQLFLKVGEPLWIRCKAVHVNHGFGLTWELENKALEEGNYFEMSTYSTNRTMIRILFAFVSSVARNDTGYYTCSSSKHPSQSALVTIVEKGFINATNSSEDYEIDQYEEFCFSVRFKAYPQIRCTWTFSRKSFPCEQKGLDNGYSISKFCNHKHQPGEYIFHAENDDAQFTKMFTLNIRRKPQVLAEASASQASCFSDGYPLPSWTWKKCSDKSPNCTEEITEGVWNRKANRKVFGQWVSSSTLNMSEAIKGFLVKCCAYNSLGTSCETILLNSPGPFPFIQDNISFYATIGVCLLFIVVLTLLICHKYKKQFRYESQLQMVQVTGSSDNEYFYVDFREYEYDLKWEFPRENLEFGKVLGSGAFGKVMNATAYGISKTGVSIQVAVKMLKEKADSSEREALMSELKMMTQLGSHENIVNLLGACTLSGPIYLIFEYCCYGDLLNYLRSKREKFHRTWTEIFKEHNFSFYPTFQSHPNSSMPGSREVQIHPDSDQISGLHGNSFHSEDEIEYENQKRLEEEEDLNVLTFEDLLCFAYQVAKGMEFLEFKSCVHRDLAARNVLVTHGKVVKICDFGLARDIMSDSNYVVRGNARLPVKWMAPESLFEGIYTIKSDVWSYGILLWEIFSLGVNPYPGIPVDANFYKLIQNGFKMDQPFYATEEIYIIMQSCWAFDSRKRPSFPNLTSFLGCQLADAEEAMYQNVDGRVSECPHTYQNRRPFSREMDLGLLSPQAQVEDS
Experimental: as §1

Bcr-Abl1 = Bcr-Abl1 (Homo sapiens, UniProt P00519); experiment: Recombinant kinase radioassay, Abl; assay type: biochemical; conditions: ATP 1 µM, at least three independent experiments, range 0.01–100 µM
Sequence of Bcr-Abl1 (P00519 27-1130): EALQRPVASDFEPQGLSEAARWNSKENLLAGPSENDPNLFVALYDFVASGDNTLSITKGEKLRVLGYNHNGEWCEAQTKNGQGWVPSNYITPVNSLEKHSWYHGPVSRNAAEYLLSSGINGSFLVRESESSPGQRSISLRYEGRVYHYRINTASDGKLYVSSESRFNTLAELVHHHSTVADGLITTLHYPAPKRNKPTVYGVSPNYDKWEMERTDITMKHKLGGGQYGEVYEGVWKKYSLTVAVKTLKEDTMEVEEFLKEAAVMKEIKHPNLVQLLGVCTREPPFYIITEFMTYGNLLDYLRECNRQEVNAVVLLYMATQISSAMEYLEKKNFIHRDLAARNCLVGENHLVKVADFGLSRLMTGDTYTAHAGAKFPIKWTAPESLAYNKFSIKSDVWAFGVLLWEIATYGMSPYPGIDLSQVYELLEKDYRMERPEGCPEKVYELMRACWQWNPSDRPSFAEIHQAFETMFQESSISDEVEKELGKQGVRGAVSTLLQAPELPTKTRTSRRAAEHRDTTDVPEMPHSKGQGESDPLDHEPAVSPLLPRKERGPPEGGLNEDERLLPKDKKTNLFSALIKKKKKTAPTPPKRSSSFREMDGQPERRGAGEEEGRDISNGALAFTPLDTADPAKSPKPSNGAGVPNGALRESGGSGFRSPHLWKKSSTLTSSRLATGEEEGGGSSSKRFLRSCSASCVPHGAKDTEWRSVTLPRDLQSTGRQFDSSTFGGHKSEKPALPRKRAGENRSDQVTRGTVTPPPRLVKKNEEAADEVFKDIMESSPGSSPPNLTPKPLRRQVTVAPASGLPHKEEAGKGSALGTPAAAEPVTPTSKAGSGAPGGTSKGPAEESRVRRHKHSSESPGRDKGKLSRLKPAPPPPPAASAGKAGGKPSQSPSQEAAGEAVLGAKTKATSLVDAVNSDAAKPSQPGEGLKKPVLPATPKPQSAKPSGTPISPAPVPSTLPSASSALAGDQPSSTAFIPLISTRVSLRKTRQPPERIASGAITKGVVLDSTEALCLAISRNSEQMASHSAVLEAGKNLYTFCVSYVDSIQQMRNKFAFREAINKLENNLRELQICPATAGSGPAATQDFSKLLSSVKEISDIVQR
Experimental: as §1

K562 = experiment: Cytotoxicity assay (resazurin), K562; assay type: cell-based; conditions: Homo sapiens, 72 h, three independent experiments, range 0.1 to 25 µM
Experimental: (§2) Cytotoxicity assays for the purines were quantified using the resazurin method, a dye to measure redox reactions occurring in the mitochondria of live cells. The cells were treated by tested compounds (in triplicate, six different doses) for 72 h.

Cdk-2/cyclin E = biological target: T3, Cdk-2/cyclin E (Homo sapiens, UniProt P24941); experiment: Recombinant kinase radioassay, Cdk-2/cyclin E; assay type: biochemical; conditions: ATP 15 µM, at least three independent experiments, range 0.01–100 µM
T3 construct: made in house
Experimental: as §1

HL-60 = experiment: Cytotoxicity assay (resazurin), HL-60; assay type: cell-based; conditions: Homo sapiens, 72 h, three independent experiments, range 0.1 to 25 µM
Experimental: as §2

Ramos = experiment: Cytotoxicity assay (resazurin), Ramos; assay type: cell-based; conditions: Homo sapiens, 72 h, three independent experiments, range 0.1 to 25 µM
Experimental: as §2

MV4-11 = experiment: Cytotoxicity assay (resazurin), MV4-11; assay type: cell-based; conditions: Homo sapiens, 72 h, three independent experiments, range 0.1 to 25 µM
Experimental: as §2

CEM = experiment: Cytotoxicity assay (resazurin), CEM; assay type: cell-based; conditions: Homo sapiens, CCRF-CEM, 72 h, three independent experiments, range 0.1 to 25 µM
Experimental: as §2

[1] = -log IC50 in molar concentration, Table S3, read-out: Experimental pIC50, CoMFA BTK (converted)
[2] = -log IC50 in molar concentration, Table S3, read-out: Experimental pIC50, CoMFA FLT3 (converted)
[3] = recombinant kinase, radioassay, ATP 15 µM, at least three independent experiments, range 0.01–100 µM, read-out: IC50 BTK
[4] = recombinant kinase, radioassay, at least three independent experiments, range 0.01–100 µM, read-out: IC50 FLT3-ITD

SMILES: Clc1nc(Cl)c2[nH]cnc2n1 [Compound 1]
IC50 (BTK; [1]): 14.7 µM | IC50 (FLT3-ITD; [2]): 19.4 µM

SMILES: CN1CCN(c2ccc(Nc3nc(Nc4cccc(C#N)c4)c4ncn(CC5CC5)c4n3)cc2)CC1 [Compound 4f, 3-((9-(Cyclopropylmethyl)-2-((4-(4-methylpiperazin-1-yl)phenyl)amino)-9H-purin-6-yl)amino)benzonitrile]
IC50 (Bcr-Abl1): 0.07 ± 0.01 µM | IC50 (BTK; [3]): 1.43 ± 0.29 µM | IC50 (FLT3-ITD; [4]): 0.93 µM | GI50 (K562): 3.68 ± 0.78 µM | IC50 (Cdk-2/cyclin E): 23.6 ± 1.15 µM | GI50 (HL-60): 1.56 ± 0.88 µM | GI50 (Ramos): 5.86 ± 3.64 µM | GI50 (MV4-11): 1.05 ± 0.1 µM

SMILES: CCOC(=O)c1ccc(Nc2nc(Nc3ccc(N4CCN(C)CC4)cc3)nc3c2ncn3CC2CC2)cc1 [Compound 4k, Ethyl-4-((9-(cyclopropylmethyl)-2-((4-(4-methylpiperazin-1-yl)phenyl)amino)-9H-purin-6-yl)amino)benzoate]
IC50 (Bcr-Abl1): 0.04 ± 0.01 µM | IC50 (BTK; [3]): 1.16 ± 0.18 µM | IC50 (FLT3-ITD; [4]): 1.16 µM | GI50 (K562): 2.7 ± 1.31 µM | IC50 (Cdk-2/cyclin E): > 50 µM | GI50 (CEM): 13.9 ± 1.12 µM | GI50 (HL-60): 1.93 ± 0.17 µM | GI50 (Ramos): 12.3 ± 1.58 µM | GI50 (MV4-11): 2.43 ± 0.59 µM

SMILES: O=C(Cl)c1ccc([N+](=O)[O-])cc1 [Compound 6]
IC50 (BTK; [1]): 4.12 µM | IC50 (FLT3-ITD; [2]): 2.32 µM

SMILES: CN1CCN(C(=O)c2ccc(N)cc2)CC1 [Compound 7]
IC50 (BTK; [1]): 1.36 µM | IC50 (FLT3-ITD; [2]): 1.25 µM

SMILES: Clc1nc(Cl)c2cc[nH]c2n1 [Compound 9]
IC50 (BTK; [1]): 0.938 µM | IC50 (FLT3-ITD; [2]): 0.534 µM

SMILES: Clc1nc(Cl)c2ccn(CC3CC3)c2n1 [Compound 10]
IC50 (BTK; [1]): 0.912 µM | IC50 (FLT3-ITD; [2]): 0.367 µM

SMILES: Clc1nc(Nc2ccccc2)c2ccn(CC3CC3)c2n1 [Compound 11]
IC50 (BTK; [1]): 1.16 µM | IC50 (FLT3-ITD; [2]): 1.16 µM

Now from value to compound, other results behind:

IC50 (Bcr-Abl1): 2.28 ± 0.8 µM | IC50 (BTK; [3]): 1.89 ± 0.17 µM | IC50 (FLT3-ITD; [4]): 0.79 µM | IC50 (Cdk-2/cyclin E): 62.5 ± 15 µM
SMILES: CC(C)CCn1cnc2c(Nc3ccc(F)c(F)c3)nc(Nc3ccc(N4CCN(C)CC4)cc3)nc21 [Compound 5c, N^6-(3,4-Difluorophenyl)-9-isopentyl-N^2-(4-(4-methylpiperazin-1-yl)phenyl)-9H-purine-2,6-diamine]
GI50 (K562): 9.4 ± 0.78 µM | GI50 (CEM): 16.8 ± 3.34 µM | GI50 (HL-60): 1.59 ± 0.47 µM | GI50 (Ramos): 8.87 ± 0.94 µM | GI50 (MV4-11): 1.43 ± 0.56 µM

IC50 (Bcr-Abl1): 1.36 ± 0.5 µM | IC50 (BTK; [3]): 0.93 ± 0.14 µM | IC50 (FLT3-ITD; [4]): 1.02 µM | IC50 (Cdk-2/cyclin E): 20.8 ± 3.18 µM
SMILES: CCCCCn1cnc2c(Nc3ccc(F)c(F)c3)nc(Nc3ccc(N4CCN(C)CC4)cc3)nc21 [Compound 5f, N^6-(3,4-Difluorophenyl)-N^2-(4-(4-methylpiperazin-1-yl)phenyl)-9-pentyl-9H-purine-2,6-diamine]
GI50 (K562): > 25 µM | GI50 (CEM): > 25 µM | GI50 (HL-60): 3.61 ± 1.02 µM | GI50 (Ramos): > 25 µM | GI50 (MV4-11): 1.61 ± 0.63 µM

IC50 (Bcr-Abl1): 34 ± 1.63 µM | IC50 (BTK; [3]): < 0.58 µM and 0.46 µM | IC50 (FLT3-ITD; [4]): 2.74 µM | IC50 (Cdk-2/cyclin E): 47.3 ± 31.6 µM
SMILES: CCCCCCn1cnc2c(Nc3ccc(F)c(F)c3)nc(Nc3ccc(N4CCN(C)CC4)cc3)nc21 [Compound 5i, N^6-(3,4-Difluorophenyl)-9-hexyl-N^2-(4-(4-methylpiperazin-1-yl)phenyl)-9H-purine-2,6-diamine]
GI50 (K562): > 25 µM | GI50 (CEM): > 25 µM | GI50 (HL-60): 3.91 ± 0.07 µM | GI50 (Ramos): > 25 µM | GI50 (MV4-11): 3.86 ± 1.08 µM

IC50 (Bcr-Abl1): 84.5 ± 5.9 µM | IC50 (BTK; [3]): 0.58 ± 0.33 µM | IC50 (FLT3-ITD; [4]): > 20 µM | IC50 (Cdk-2/cyclin E): 32.2 ± 1.33 µM
SMILES: CCCCCCCCn1cnc2c(Nc3ccc(F)c(F)c3)nc(Nc3ccc(N4CCN(C)CC4)cc3)nc21 [Compound 5l, N^6-(3,4-Difluorophenyl)-N^2-(4-(4-methylpiperazin-1-yl)phenyl)-9-octyl-9H-purine-2,6-diamine]
GI50 (K562): 11.8 ± 2.19 µM | GI50 (CEM): > 25 µM | GI50 (HL-60): 1.51 ± 1.49 µM | GI50 (Ramos): 18.9 ± 2.11 µM | GI50 (MV4-11): 16.3 ± 4.99 µM

IC50 (BTK; [3]): 1.72 ± 0.19 µM | IC50 (FLT3-ITD; [4]): 1.6 µM | melting point: 150 to 151 °C
SMILES: CN1CCN(C(=O)c2ccc(Nc3nc(Nc4cccc(F)c4)c4ncn(CC5CC5)c4n3)cc2)CC1 [Compound 8b, (4-((9-(Cyclopropylmethyl)-6-((3-fluorophenyl)amino)-9H-purin-2-yl)amino)phenyl)(4-methylpiperazin-1-yl)methanone]
GI50 (K562): 4.91 ± 0.01 µM | GI50 (CEM): 20.2 ± 3.73 µM | GI50 (HL-60): 1.08 ± 0.1 µM | GI50 (Ramos): 7.07 ± 0.32 µM | GI50 (MV4-11): 1.48 ± 0.54 µM
